For series [1] the following is noted: mice, dietary; cited from earlier work.
The nature of series [2]: Plasma levels of sulforaphane and its metabolites after chronic dietary treatment. The format is in vivo, mice. From the text:
These levels are adequate to expect biological effects.

Series [3] has as its system UVB-pretreated high-risk mice. The series is described as follows: UVB radiation-induced skin carcinogenesis in high-risk mice, dietary administration. The following applies: for reduction of tumor incidence (percent animals with tumors) / reduction of tumor multiplicity (number of tumors per mouse): 13 weeks; for reduction of tumor multiplicity (number of tumors per mouse): diet; for number of tumors per mouse: control 4.3. The format is in vivo. How it is done: Seeds of broccoli (Brassica oleracea italica, cv. DeCicco) were used to grow sprouts as described in Example 1. Growth was arrested after 3 days by plunging sprouts into boiling water and allowed to boil for ˜30 min. This treatment inactivated the endogenous sprout myrosinase and extracted the glucosinolates. […] The powder was mixed with the mouse diet (powdered AIN 76A) to give the equivalent of 10 μmol (low dose) or 50 μmol (high dose) of glucoraphanin per 3 grams of diet.
Body weights and formation of tumors larger than 1 mm in diameter were determined weekly.
UVB radiation was provided by a bank of UV lamps (FS72T12-UVB-HO, National Biological Corporation, Twinsburg, Ohio) emitting UVB (280-320 nm, 65% of total energy) and UVA (320-375 nm, 35% of total energy). The radiant dose of UVB was quantified with a UVB Daavlin Flex Control Integrating Dosimeter and further calibrated with an IL-1400 radiometer (International Light, Newburyport, Mass.).
The animals were irradiated for 20 weeks on Tuesdays and Fridays with a radiant exposure of 30 mJ/cm^2/session. One week later, the mice were divided into three groups: 30 animals in each treatment group and 30 animals in the control group. The mice in the two treatment groups received a diet into which was incorporated a freeze-dried broccoli sprout extract powder. The diet of the low dose treatment group included a freeze-dried broccoli sprout extract powder equivalent to 10 μmol/day glucoraphanin, while the diet of the high dose treatment group included a freeze-dried broccoli sprout extract powder equivalent to 50 μmol/day glucoraphanin. […] The mice were fed this diet for 13 weeks.
Tumor volumes were determined by measuring the height, length, and width of each mass that was larger than 1 mm in diameter. The average of the three measurements was used as the diameter and the volume was calculated (v=4πr^3/3). All mice were euthanized on the same day and the size and multiplicity of tumors was determined. Dorsal skins were dissected using a rectangular template (2.5×5 cm) to include the entire treated areas of the mice. Skins were stapled to cardboard, photographed, and fixed in ice-cold 10% phosphate-buffered formalin at 4° C. for 24 h.
Tumor incidence was evaluated using the Kaplan-Meier survival analysis followed by both a stratified log-rank test and a Wilcoxon test, for equality of survivor functions. Tumor multiplicity was evaluated by ANOVA and comparisons were made on all treatments and on individual, paired treatments (t-test). Tumor volume was evaluated by ANOVA with treatment time as a nested variable. These calculations were performed using Stata 7.0 (College Station, Tex.). Other statistics were calculated using Excel.

The subject of a further series is quinone reductase (NQO1). The conditions noted are these: 48 h exposure; for intracellular level of NQO1: serial dilutions. As for the experimental part: (§1) Cells (20,000 per well) were plated on 96-well plates and exposed to a series of concentrations of sulforaphane. GSH and NQO1 levels were measured in cell lysates after 24 h and 48 h, respectively. Each data point represents the average of the measurements from 8 different wells.
(§2) HaCaT human keratinocytes (a gift from G. Tim Bowden, Arizona Cancer Center, Tucson) were cultured in Dulbecco's modified Eagle's medium (DMEM) supplemented with 5% FBS; and PE murine keratinocytes (a gift from Stuart H. Yuspa, National Cancer Institute, Bethesda, Md.) were cultured in Eagle's minimum essential medium (EMEM) with 8% FBS, treated with Chelex resin (Bio-Rad) to remove Ca^2+.
(§3) Cells (20,000 per well) were grown for 24 h in 96-well plates, then exposed to serial dilutions of sulforaphane for either 24 h (for glutathione determination) or 48 h (for NQO1 determination), and finally lysed in 0.08% digitonin. An aliquot (25 μl) was used for protein analysis. Activity of NQO1 was determined by the Prochaska test (29,30). To measure the intracellular glutathione levels, 25 μl of cell lysate received 50 μl of ice-cold metaphosphoric acid (50 g/liter) in 2 mM EDTA to precipitate cellular protein. After 10 min at 4° C., plates were centrifuged at 1,500 g for 15 min and 50 μl of the resulting supernatant fractions were transferred to a parallel plate. To each of these wells, 50 μl of 200 mM sodium phosphate buffer, pH 7.5, containing 10 mM EDTA, were added and total cellular glutathione was determined by rate measurements in a recycling assay (31,32).

The test system of series [4] is glutathione. The following applies: 24 h exposure, serial dilutions. As for the experimental part: as §1, §2, §3
Series [5] deals with NQO1. The series is described as follows: Skin NQO1 specific activity after 311-nm UV radiation. The following applies: three topical doses at 24-h intervals, 700 mJ/cm^2 311-nm UV 24 h after last dose. The format is in vivo, SKH-1 hairless mice. How it is done:
(§4) The backs of SKH-1 hairless mice were treated topically with three doses at 24-h intervals of: (i) broccoli sprout extract containing 0.5 μmol of sulforaphane in 50 μl of 80% acetone/20% water (vol/vol) applied to the caudal area, and (ii) solvent applied to the rostral area. The animals received 700 mJ/cm^2 of 311-nm UV radiation 24 h after the last dose and were euthanized 24 h later, and their dorsal skin was harvested. (A) Fresh frozen 9-μm-thick sections of skin were fixed with paraformaldehyde and stained with H&E. (Scale bar 100 μm). (B) Mice were irradiated with a range of doses of UV radiation and euthanized 24 h later. (C) MPO-specific activity was measured in supernatant fractions of total homogenates prepared from liquid nitrogen-frozen and pulverized dorsal skin, and its protein levels were detected by Western blots with anti-MPO antibody (Hycult Biotechnology, Uden, The Netherlands). […] (D and E) MPO-specific (D) and NQO1-specific (E) activities were measured in supernatant fractions of total skin homogenates from mice treated with solvent (black bars), sulforaphane (gray bars), and broccoli sprout extract (white bars) and are expressed as ratios of each treatment to the non-irradiated control. Average values±SD are shown. Eight animals were used in the control group, and four in each of the treatment groups.

For another series, the system named is RAW 264.7 cells. The series is described as follows: cells. The conditions noted are these: Mus musculus, RAW264.7, 24 h, read-out: IC50, inhibition of NO formation. How it is done:
(§5) Cells were treated with various concentrations of sulforaphane and either IFNγ (10 ng/ml) or lipopolysaccharide (LPS; 3 ng/ml) for 24 h. NO in the medium was measured as nitrite by the Griess reaction (A), and iNOS induction was detected by Northern (B) and Western (C) blotting.

The subject of the next series is HaCaT cells. The following applies: HaCaT cells at concentrations giving >10-fold NQO1 induction.
For series [6] the following is noted: in vivo; cited from earlier work.
The subject of another series is iNOS. The conditions noted are these: IFN-γ 10 ng/ml or LPS 3 ng/ml overnight. How it is done:
as §5
RAW 264.7 macrophages (2×10^6 cells/well) were incubated with sulforaphane and either 10 ng/ml of IFN-γ or 3 ng/ml of LPS overnight. For Northern blots, total RNA was isolated with Trizol reagent (Invitrogen) and prepared for blotting as previously described (33). Probes for iNOS and GAPDH were radiolabeled with […] with random primers. For Western blots, total cell lysates were subjected to SDS/PAGE, transferred to a membrane, and probed with iNOS and β-actin antibodies (Santa Cruz Biotechnology).

Another series relates to PE murine keratinocytes. The following applies: 5 μM for 24 h, UVA 10 J/cm^2, PE cells.
For series [7], the system named is glutathione. The following applies: topical, extract containing 1 μmol sulforaphane, skin 24 h later, vs vehicle. The text has this:
(§6) The phase 2 response was next evaluated in vivo in […] hairless mice. Female SKH-1 hairless mice (4 weeks old) were obtained from Charles River Breeding Laboratories (Wilmington, Mass.) and were acclimatized in our animal facility for 2 weeks before the start of the experiment. The animals were kept on a 12-h light/12-h dark cycle, 35% humidity, and given free access to water and pelleted AIN 76A diet (Harlan TekLad, free of inducers). All animal experiments were in compliance with the National Institutes of Health Guidelines and were approved by the Johns Hopkins University Animal Care and Use Committee.
(§7) Seven-week-old SKH-1 hairless mice (5 per group) were treated topically on their backs with either 100 μl of a standardized myrosinase-hydrolyzed broccoli sprout extract containing 1 μmol of sulforaphane, or vehicle (100 μl of 80% acetone:20% water, v/v). The animals were euthanized 24 h later and their dorsal skins were dissected using a rectangular template (2.5×5 cm) and frozen in liquid N2. Skin samples were pulverized in liquid N2 and 100 mg of the resulting powder was homogenized in 1 ml of either 0.25 M sucrose buffered with 10 mM Tris-HCl, pH 7.4, for analysis of NQO1 enzymatic activity and protein content, or ice-cold metaphosphoric acid (50 g/liter) in 2 mM EDTA for analysis of glutathione. […]

Series [8] concerns NQO1. The following applies: topical, extract containing 1 μmol sulforaphane, skin 24 h later, vs vehicle.
Excerpt: as §6, §7

Another series concerns myeloperoxidase (MPO). The series is described as follows: Skin myeloperoxidase (MPO) after 311-nm UV radiation. The format is in vivo, SKH-1 hairless mice. The conditions noted are these: three topical doses at 24-h intervals, 700 mJ/cm^2 311-nm UV 24 h after last dose. How it is done: as §4

Results on two compounds are retold here after patent US20110014137A1, “METHODS FOR PROTECTING THE SKIN FROM RADIATION INSULTS” (priority 2007, published 2011).

SMILES strings stand for the structures. Entries after “also recorded” stand apart in the source; their conditions may differ. Read-outs that look alike come from different tables or passages of the source.

Description for PE murine keratinocytes: Cells (50,000 per well) were plated on 24-well plates, treated with 5 μM sulforaphane for 24 h, washed with DPBS, and then exposed to UVA (10 J/cm^2). Reactive oxygen intermediates generated by the UV radiation were quantified by the fluorescent probe 2′,7′-dichlorodinitrofluorescein and fluorescence intensity was measured (expressed as a ratio of exposed to non-exposed cells).
PE cells (50,000 per well) were seeded into 24-well plates and grown for 48 h. The cells were then exposed to 1 μM or 5 μM sulforaphane for 24 h. On the day of the experiments, after removing the medium, the cells were incubated with 100 μM 2′,7′-dichlorodinitrofluorescein diacetate in 500 μl of fresh medium (Molecular Probes, Eugene, Oreg.) for 30 min. The medium containing the fluorescent probe was then removed, the cells were washed with DPBS, and exposed to UVA radiation (10 J/cm^2). Control cells were kept in the dark. Cells were detached with trypsin, suspended in 2.0 ml of DPBS, and the intensity of fluorescence was determined in cell suspensions at 520 nm with an excitation of 485 nm in 2-ml cuvettes in a Perkin-Elmer LS50 spectrofluorimeter.

Take `C[S+]([O-])CCCC/C(=N\OS(=O)(=O)O)S[C@@H]1O[C@H](CO)[C@@H](O)[C@H](O)[C@H]1O` (stereo partly shown) [glucoraphanin]: the “fraction converted to sulforaphane upon ingestion” value in series [1] is “about 10%”. The “plasma levels of sulforaphane and its metabolites” value was found to be 2500 nM in series [2] (high dose 50 μmol/day glucoraphanin) and 2200 nM in series [2] (low dose 10 μmol/day glucoraphanin). Besides, the “inhibition in the total tumor volume per mouse” value in [3] (high dose 50 μmol/day) and in series [3] (low dose 10 μmol/day) was 70% in each case. In addition, the “reduction of tumor incidence (percent animals with tumors)” value in series [3] (high dose 50 μmol/day glucoraphanin as freeze-dried broccoli sprout extract powder in diet) was 35%; in series [3] (low dose 10 μmol/day glucoraphanin as freeze-dried broccoli sprout extract powder in diet), 25%. In addition, the “reduction of tumor multiplicity (number of tumors per mouse)” value in series [3] (high dose 50 μmol/day) is recorded as 72%; in [3] (low dose 10 μmol/day) it was 47%. The “number of tumors per mouse” value in series [3] (high dose 50 μmol/day) was 1.2; in [3] (low dose 10 μmol/day), 2.3.

For orientation: IC50 means the point on the concentration scale where inhibition reaches its midpoint. As for `C[S+]([O-])CCCCN=C=S` (stereo not shown) [sulforaphane, 4-methylsulfinylbutyl isothiocyanate], the “magnitude of NQO1 induction” value in the series on quinone reductase (NQO1) (HaCaT cells) is more than 10 fold. The “intracellular level of NQO1” value in the series on quinone reductase (NQO1) (HaCaT human keratinocytes) and in the series on quinone reductase (NQO1) (PE murine keratinocytes) was “increased in a dose-dependent manner” throughout. Also, the “intracellular level of glutathione” value with glutathione [4] (HaCaT human keratinocytes) and with glutathione [4] (PE murine keratinocytes) was “increased in a dose-dependent manner” in each case. The “NQO1 specific activity in skin homogenates” value with NQO1 [5] is reported as “increased the specific activities; also recorded: restoration of the UV radiation decreased NQO1 levels”. Besides, the IC50 in the series with RAW 264.7 cells amounted to 300 nM. In addition, in the series with HaCaT cells, the cytotoxicity result is recorded as “without any apparent evidence of cytotoxicity”. In addition, the tissue half-life in [6] was 1 to 2 h. Moreover, the “synthesis of iNOS mRNA” value with iNOS (Northern blot) was “inhibited”. In addition, in the series with iNOS (Western blot), the “synthesis of iNOS protein” value is “inhibited”. In the series on PE murine keratinocytes, the “reduction in reactive oxygen intermediates generated by the UV radiation” value is recorded as 50%. Also, the “elevation of the total glutathione levels” value in the series on glutathione [7] is given as approximately 15%. Moreover, the “induction of NQO1” value in the series on NQO1 [8] is approximately 50%. Further, in the series with myeloperoxidase (MPO), the “UV radiation-induced MPO protein and enzyme activity” value is “suppressed the increases of MPO protein and enzyme activity levels; also recorded: equivalent protection against the UV radiation-induced MPO elevation”. Further, the “reduction of tumor multiplicity (number of tumors per mouse)” value in [3] (high dose 50 μmol/day) is on record as 72%; in [3] (low dose 10 μmol/day), 47%.
